Measured values reported in patent US9416142B2, “Griseofulvin derivatives” (PIERRE FABRE MEDICAMENT, priority 2012, dated 2016).

Key:
Format in all cases: cell-based
[1] = tested on: HCC1937 (primary ductal breast carcinoma cell line); test: Cytotoxic activity, cell proliferation (ATPLite) on HCC1937 line; conditions: Homo sapiens, 48 hours after treatment
Protocol: (§1) Culture of Lines and Measurement of Cell Viability:
(§2) The lines NIE115 (ATCC, CRL2263), MDA-MB-231 (ATCC, HTB26) and HSC-1 (Health Science Research Resources Bank, JCRB1015) were cultured in DMEM medium (Dulbecco's modified Eagle medium) supplemented with 2 mM of L-Glutamine (Sigma, G7513) and 10% foetal calf serum (Hyclone, SH30109.03) or 20% for the HSC-1 cells. The HCC-1937 (ATCC, CRL2336) and A549 (ATCC, CCL185) lines were cultured in RPMI medium (Roswell Park Memorial Institute medium) supplemented with 10% foetal calf serum and 2 mM of L-Glutamine. Finally, the SCC114 line (DSMZ, ACC662) was cultured in MEM medium (Minimum Essential Medium Eagle) supplemented with 10% foetal calf serum and 2 mM of L-Glutamine. Initially, in 96-well plates (Perkin Elmer, 6005668), the cells were seeded in their respective culture media with 750 cells per well for NIE115; 1000 cells per well for SCC114 and A549; 2000 cells per well for HCC-1937 and HSC-1; 2500 cells per well for MDA-MB-231. Cascade dilution of each compound was performed in dimethylsulfoxide (DMSO) (Sigma, D8418) using 10 mM stock solutions in 100% DMSO. Each of the dilutions was added to the cells 24 hours after seeding. Under these conditions the final solvent concentration was 0.1% DMSO. Reading of cell proliferation was conducted 72 hours after addition of products with the ATPLite kit (Perkin Elmer, 6016947) and following the manufacturer's directions except in the case of the HCC-1937 line for which this reading was carried out 48 hours after treatment. Analysis of proliferation results was performed by comparing with conditions in which solely the vehicle was added to the cells. The dose-response curves obtained were analysed using Prism 4.03 software (GraphPad Software Inc.) to determine the concentration of each compound allowing 50% inhibition of cell proliferation (IC50). As examples, the cytotoxic properties of some compounds of the invention evaluated on the lines A549 (lung cancer cell line), MDA-MB-231 (mammary adenocarcinoma cell line), NIE115 (mouse brain neuroblastoma cell line), HCC-1937 1 (primary ductal breast carcinoma cell line), HSC-1 (cutaneous squamous carcinoma cell line) and SCC114 (oral squamous carcinoma cell line) are reported in Table 1, as compared with griseofulvin used as control product. The concentration values are expressed in micromolar units (μM).
The activity of the compounds of the invention on the […] line was compared with that of known cytotoxics (Epotilone B and Vinflunine).

[2] = tested on: SCC114 (oral squamous carcinoma cell line); test: Cytotoxic activity, cell proliferation (ATPLite) on SCC114 line; conditions: 50% inhibition of cell proliferation, 72 hours after addition
Protocol: as §1, §2

[3] = tested on: A549 (lung cancer cell line); test: Cytotoxic activity, cell proliferation (ATPLite) on A549 line; conditions: Homo sapiens, 50% inhibition of cell proliferation, 72 hours after addition
Protocol: as §1
as §2, with “Analysis of proliferation results was performed by comparing with conditions in which solely the vehicle was added to the cells. The dose-response curves obtained were analysed using Prism 4.03 software (GraphPad Software Inc.) to determine the concentration of each compound allowing 50% inhibition of cell proliferation (IC50).” left out, “The concentration values are expressed in micromolar units (μM).” left out

[4] = tested on: MDA-MB-231 (mammary adenocarcinoma cell line); test: Cytotoxic activity, cell proliferation (ATPLite) on MDA-MB-231 line; conditions: Homo sapiens, 50% inhibition of cell proliferation, 72 hours after addition
Protocol: as §1
as §2, with “Analysis of proliferation results was performed by comparing with conditions in which solely the vehicle was added to the cells. The dose-response curves obtained were analysed using Prism 4.03 software (GraphPad Software Inc.) to determine the concentration of each compound allowing 50% inhibition of cell proliferation (IC50).” left out, “The concentration values are expressed in micromolar units (μM).” left out

[5] = tested on: N1E-115 (mouse brain neuroblastoma cell line); test: Cytotoxic activity, cell proliferation (ATPLite) on N1E-115 line; conditions: 50% inhibition of cell proliferation, 72 hours after addition
Protocol: as §1
as §2, with “Analysis of proliferation results was performed by comparing with conditions in which solely the vehicle was added to the cells. The dose-response curves obtained were analysed using Prism 4.03 software (GraphPad Software Inc.) to determine the concentration of each compound allowing 50% inhibition of cell proliferation (IC50).” left out, “The concentration values are expressed in micromolar units (μM).” left out

[6] = tested on: HSC-1 (cutaneous squamous carcinoma cell line); test: Cytotoxic activity, cell proliferation (ATPLite) on HSC-1 line; conditions: 50% inhibition of cell proliferation, 72 hours after addition
Protocol: as §1
The lines NIE115 (ATCC, CRL2263), MDA-MB-231 (ATCC, HTB26) and HSC-1 (Health Science Research Resources Bank, JCRB1015) were cultured in DMEM medium (Dulbecco's modified Eagle medium) supplemented with 2 mM of L-Glutamine (Sigma, G7513) and 10% foetal calf serum (Hyclone, SH30109.03) or 20% for the HSC-1 cells. The HCC-1937 (ATCC, CRL2336) and A549 (ATCC, CCL185) lines were cultured in RPMI medium (Roswell Park Memorial Institute medium) supplemented with 10% foetal calf serum and 2 mM of L-Glutamine. […] Reading of cell proliferation was conducted 72 hours after addition of products with the ATPLite kit (Perkin Elmer, 6016947) and following the manufacturer's directions except in the case of the HCC-1937 line for which this reading was carried out 48 hours after treatment. […] As examples, the cytotoxic properties of some compounds of the invention evaluated on the lines A549 (lung cancer cell line), MDA-MB-231 (mammary adenocarcinoma cell line), NIE115 (mouse brain neuroblastoma cell line), HCC-1937 1 (primary ductal breast carcinoma cell line), HSC-1 (cutaneous squamous carcinoma cell line) and SCC114 (oral squamous carcinoma cell line) are reported in Table 1, as compared with griseofulvin used as control product. […]

[7] = Table 2, comparison with known cytotoxics and 2′-SR7 compounds
[8] = Table 1, 50% inhibition of cell proliferation

| Compound | IC50 [1, 7] [µM] | IC50 [1, 8] [µM] | IC50 [2] [µM] | further results |
| --- | --- | --- | --- | --- |
| COc1cc(OC)c2c(c1Cl)OC1(C2=O)C(SCc2ccccc2)=CC(=O)C[C@H]1C (some centres unmarked) [A, reference compound] | > 10 | – | – | – |
| COc1cc(OC)c2c(c1Cl)O[C@]1(C2=O)C(S(=O)(=O)CCN(C)C)=CC(=O)C[C@H]1C [Compound 146, (1′R,6′R)-7-chloro-2′-(2-(dimethylamino)ethylsulfonyl)-4,6-dimethoxy-6′-methyl-3H-spiro[benzofuran-2,1′-cyclohex[2]ene]-3,4′-dione] | – | 5.9 | – | – |
| COc1cc(OC)c2c(c1Cl)O[C@@]1(C=C([S+]([O-])Cc3ccccc3)C(=O)C[C@H]1C)C2=O (stereo partly drawn) [Compound 97, (1′S,6′R)-3′-(benzylsulfinyl)-7-chloro-4,6-dimethoxy-6′-methyl-3H-spiro[benzofuran-2,1′-cyclohex[2]ene]-3,4′-dione] | – | – | 0.021 | – |
| COc1cc(OC)c2c(c1Cl)O[C@]1(C2=O)C(S(=O)(=O)Cc2ccccc2)=CC(=O)C[C@H]1C [Compound 145, (1′R,6′R)-2′-(benzylsulfonyl)-7-chloro-4,6-dimethoxy-6′-methyl-3H-spiro[benzofuran-2,1′-cyclohex[2]ene]-3,4′-dione] | – | 1.4 | 0.385 | IC50 [3]: 1.5 µM; IC50 [4]: 2 µM; IC50 [5]: 3 µM |
| C/C(=C\c1csc(C)n1)[C@@H]1C[C@@H]2O[C@]2(C)CCC[C@H](C)[C@H](O)[C@@H](C)C(=O)C(C)(C)[C@@H](O)CC(=O)O1 [Epotilone B, reference compound] | > 10 | – | – | – |
| CC[C@]12C=CCN3CC[C@@]4(c5cc([C@@]6(C(=O)OC)C[C@@H]7C[C@@H](C(C)(F)F)CN(Cc8c6[nH]c6ccccc86)C7)c(OC)cc5N(C)[C@H]4[C@@](O)(C(=O)OC)[C@@H]1OC(C)=O)[C@@H]32 [Vinflunine, reference compound] | > 10 | – | – | – |
| COc1cc(OC)c2c(c1Cl)O[C@]1(C2=O)C(SCCN(C)C)=CC(=O)C[C@H]1C (racemic) [B, reference compound] | > 10 | – | – | – |
| COc1cc(OC)c2c(c1Cl)O[C@]1(C2=O)C(S(=O)(=O)c2ccccc2)=CC(=O)C[C@H]1C [Compound 147, (1′R,6′R)-7-chloro-4,6-dimethoxy-6′-methyl-2′-(phenylsulfonyl)-3H-spiro[benzofuran-2,1′-cyclohex[2]ene]-3,4′-dione] | – | 1.6 | – | – |
| COc1cc(OC)c2c(c1Cl)O[C@@]1(C=C([S+]([O-])c3ccccc3)C(=O)C[C@H]1C)C2=O (some centres unmarked) [Compound 95] | – | 0.43 | 0.25 | IC50 [3]: 0.25 µM; IC50 [4]: 0.54 µM; IC50 [5]: 1 µM |
| COc1cc(OC)c2c(c1Cl)O[C@@]1(C=C(S(=O)(=O)Cc3ccccc3)C(=O)C[C@H]1C)C2=O [Compound 96, (1′S,6′R)-3′-(benzylsulfonyl)-7-chloro-4,6-dimethoxy-6′-methyl-3H-spiro[benzofuran-2,1′-cyclohex[2]ene]-3,4′-dione] | – | 0.92 | – | – |
| COC1=CC(=O)C[C@@H](C)[C@]12Oc1c(Cl)c(OC)cc(OC)c1C2=O [Griseofulvin] | – | > 10 | 6.4 | IC50 [3]: > 10 µM; IC50 [6]: > 10 µM; IC50 [4]: > 10 µM; IC50 [5]: > 10 µM |
| COc1cc(OC)c2c(c1Cl)O[C@@]1(C=C(S(=O)(=O)c3ccccc3)C(=O)C[C@H]1C)C2=O [Compound 98, (1′S,6′R)-7-chloro-4,6-dimethoxy-6′-methyl-3′-(phenylsulfonyl)-3H-spiro[benzofuran-2,1′-cyclohex[2]ene]-3,4′-dione] | – | 0.7 | 0.41 | – |
